Test results as given in publication PMC8788626 (Lung cancer (Amsterdam, Netherlands), 2017).
Where “and” joins values, the source holds several entries; their conditions need not be identical. Identical values can stand only once. One block for each compound: values may come before it.

Columns and labels:
[1] = test system: lung cancers harboring EGFR T790M; format: in vivo, patients; settings: Cohort A
[2] = test system: patients with advanced NSCLC; settings: in vivo
[3] = test system: T790M-negative, otherwise molecularly unselected advanced NSCLC; experiment: Phase 2 study of intermittent pulse dacomitinib, efficacy, Cohort B; format: in vivo, patients; settings: 95% CI 1.0–3.3 months
EGFR-mutant lung cancers = settings: first line, subset with EGFR-mutant lung cancers; cited from earlier work
EGFR-mutant lung cancer = settings: first-line therapy, standard daily dosing, ARCHER 1050; cited from earlier work
[4] = continuous daily dosing; cited from earlier work
[5] = Plasma pharmacokinetics of dacomitinib and metabolite PF-05199265; format: in vivo, patients; settings: for Pre-dose (0 h) plasma concentration, mean (CV%) / Pre-dose (0 h) plasma concentration, median: Cycle 0, Day 4, 45 mg dacomitinib q12 h
QT interval = experiment: ECG analysis of QTc interval change from baseline; format: in vivo, patients
[6] = Cycle 0, Day 4, following 6 doses (q12 h) of 45 mg dacomitinib
[7] = Cycle 1, Day 1, following 3 day washout after 6 doses (q12 h) of 45 mg dacomitinib
[8] = Cycle 1, Day 4, following 5 doses (q12 h) of 60 mg dacomitinib

Compound: COc1cc2ncnc(Nc3ccc(F)c(Cl)c3)c2cc1NC(=O)/C=C/CN1CCCCC1 [dacomitinib]
- ORR (overall response rate) ([1]; 16 patients, 95% CI 0.2%–30.2%, p-value = 0.15): 6.3%
- median PFS ([1]; 95% CI 1.4–4.4 months): 2.3 months
- Grade 3 treatment-emergent lymphopenia ([2]; human): 13.2%
- frequency of the most frequent treatment-related toxicities (diarrhea, rash, stomatitis, nausea, dry skin, paronychia, fatigue, decreased appetite) ([2]; human): > 20 % of patients
- treatment-related serious adverse events: dehydration ([2]; human): 2
- treatment-related serious adverse events: diarrhea ([2]; human): 2
- treatment-related serious adverse events: nausea ([2]; human): 1
- Grade 3 hypermagnesemia, patients [2]: three
- number of treatment-related serious adverse events [2]: five
- patients who discontinued study therapy due to a treatment-related adverse event [2]: No patients
- patients with at least one treatment-related adverse event [2]: All patients
- patients with treatment-related serious adverse events [2]: three
- treatment-related cardiac adverse events [2]: no treatment-related cardiac adverse events
- median PFS [3]: 1.6 months
- estimated median progression-free survival (EGFR-mutant lung cancers): 18.2 months
- overall response rate (EGFR-mutant lung cancers): 76%
- median progression-free survival (EGFR-mutant lung cancer): 14.7 months
- maximum tolerated dose [4]: 45 mg daily
- Pre-dose (0 h) plasma concentration, mean (CV%) [5]: 76.4 ng/mL
- Pre-dose (0 h) plasma concentration, median [5]: 68.4 ng/mL
- Pre-dose (0 h) plasma concentration, mean (CV%) ([5]; listed as Dacomitinib): 76.4 (43) ng/mL
- Cmin, mean (CV%) [5, 6]: 71.3 (39) ng/mL
- Cmin, median [5, 6]: 65.6 ng/mL
- Pre-dose plasma concentration, mean (CV%) [5, 7]: 32.1 (65) ng/mL
- Pre-dose plasma concentration, median [5, 7]: 26.9 ng/mL
- Pre-dose plasma concentration, mean (CV%) [5, 8]: 108.1 (39) ng/mL
- Pre-dose plasma concentration, median [5, 8]: 100 ng/mL
- Tmax ([5]; human, plasma, oral, 45 mg): 6.1 h
- AUC(0-t) ([5]; human, plasma, oral, 45 mg, AUC0–10, mean (CV%), Cycle 0, Day 4, following 6 doses (q12 h) of 45 mg dacomitinib): 794 ng·h/mL
- AUC(0-t) ([5]; human, plasma, oral, 45 mg, AUC0–10, median, Cycle 0, Day 4, following 6 doses (q12 h) of 45 mg dacomitinib): 728 ng·h/mL
- Cmax ([5]; human, plasma, oral, 45 mg, mean (CV%), Cycle 0, Day 4, following 6 doses (q12 h) of 45 mg dacomitinib): 96.8 ng/mL
- Cmax ([5]; human, plasma, oral, 45 mg, median, Cycle 0, Day 4, following 6 doses (q12 h) of 45 mg dacomitinib): 90.7 ng/mL
- upper limits of the 95% CI for the mean change from baseline in QTc (QTcB, QTcF, QTcS) (QT interval; all Cycle 0 day 4 time points, 45 mg q12 h): < 10 ms
- effect on cardiac repolarization (QT interval; at exposures comparable to steady state of 45 mg daily regimen): no effects on cardiac repolarization

- Pre-dose (0 h) plasma concentration, mean (CV%) [5]: 7.1 ng/mL and 7.1 (161) ng/mL
- Pre-dose (0 h) plasma concentration, median [5]: 4.6 ng/mL
- AUC0–10, mean (CV%) [5, 6]: 75.0 (148) ng h/mL
- AUC0–10, median [5, 6]: 50.8 ng·h/mL
- Cmax, mean (CV%) [5, 6]: 8.5 (150) ng/mL
- Cmax, median [5, 6]: 5.9 ng/mL
- Cmin, mean (CV%) [5, 6]: 6.8 (157) ng/mL
- Cmin, median [5, 6]: 4.5 ng/mL
- Tmax, median (minimum–maximum) [5, 6]: 5.6 (0–11.0) hr
- Pre-dose plasma concentration, mean (CV%) [5, 7]: 3.8 (83) ng/mL
- Pre-dose plasma concentration, median [5, 7]: 2.8 ng/mL
- Pre-dose plasma concentration, mean (CV%) [5, 8]: 9.0 (93) ng/mL
- Pre-dose plasma concentration, median [5, 8]: 7.43 ng/mL
Compound: O=C(/C=C/CN1CCCCC1)Nc1cc2c(Nc3ccc(F)c(Cl)c3)ncnc2cc1O [PF-05199265]
